From paper PMC6522510 (Nature Communications, 2019)

Experiments:
Parameters in all cases: species or system AML cell lines (8); Primary HTS, single concentration about 10 uM, Cell Titer Glo viability; log10 luminescence, per cent inhibition relative to cycloheximide control
Conditions in all cases: 72 h, relative to cycloheximide control, log10 luminescence; inhibitor
CHRF288-11 = tested on: CHRF288-11
CMK = tested on: CMK
CMS = tested on: CMS
M07e = tested on: M07e
ML-2 = tested on: ML-2
MOLM-13 = tested on: MOLM-13
MV4-11 = tested on: MV4-11
U937 = tested on: U937

Structure (SMILES)	CHRF288-11 %inh (CHRF288-11)	CMK %inh (CMK)	CMS %inh (CMS)	M07e %inh (M07e)	ML-2 %inh (ML-2)	MOLM-13 %inh (MOLM-13)	MV4-11 %inh (MV4-11)	U937 %inh (U937)
Cc1ccc(Nc2ccnc(Nc3cccc(C(N)=O)c3)n2)cc1O [SJ000573134-1, R4218/174/1]	5.659%	14.84%	-1.873%	3.53%	3.588%	95.23%	65.12%	-1.642%
CNC(=O)c1cccc(C#Cc2cncnc2Nc2ccc(OCc3cccc(F)c3)c(Cl)c2)c1 [SJ000573135-1, U17545/42/1]	-0.4909%	2.154%	2.176%	2.556%	1.577%	2.058%	0.5885%	0.8403%
Cc1nc(-c2ccccc2)n2nc(NCCCN3CCOCC3)ncc12 [SJ000573136-1, U19891/100/1]	6.275%	23.01%	0.3241%	-0.8598%	5.663%	7.46%	3.076%	1.344%
N#Cc1cccc(Nc2ncc(-c3ccccc3)o2)c1 [SJ000573137-1, U15924/27/1]	-9.448%	10.57%	-1.613%	-5.302%	1.759%	64.56%	38.03%	0.4025%
CC1=C(C(=O)Nc2ccc3[nH]ncc3c2)C(c2ccc3ccccc3c2)CC(=O)N1 (stereo not shown) [SJ000573139-1, KG204183-124A1]	15.76%	48.89%	1.368%	1.439%	11.01%	1.247%	30.46%	2.011%
NS(=O)(=O)c1ccc(-c2ccc3c(NC(=O)C4CC4)n[nH]c3c2)cc1 [SJ000573140-1, VB100064-161A1]	4.361%	-4.867%	-3.489%	-0.07238%	0.5159%	-3.649%	-0.6023%	-0.5779%
CNC(=O)Oc1cc(C)c(/C=C/c2cncc(C(=O)NC)c2)c(C)c1 [SJ000573141-1, U11962/26/1]	7.117%	8.893%	-0.3622%	6.045%	1.2%	3.548%	1.51%	0.6726%
Nc1nccc(-c2c(-c3ccc(F)cc3)nn3cc(C(F)(F)F)ccc23)n1 [SJ000573142-1, U14741/95/1]	1.132%	-0.4076%	-0.8913%	93.92%	1.904%	0.5656%	-1.787%	-1.917%
N#Cc1ccc2c(-c3ccnc(NC4CC4)n3)c(-c3ccc(F)cc3)nn2c1 [SJ000573143-1, U15304/34/1]	-0.1104%	2.803%	2.587%	7.135%	1.142%	2.3%	-1.164%	0.4809%
Fc1ccc(-c2ncn(CCCN3CCOCC3)c2-c2ccncc2)cc1 [SJ000573144-1, LDD-19018-277B]	5.233%	29.46%	-0.05724%	0.1764%	2.361%	2.986%	-0.2277%	-0.4661%
O=C(Nc1n[nH]c2nc(-c3ccco3)c(Br)cc12)C1CC1 [SJ000573145-1, AG201339-071A1]	-1.607%	0.1482%	6.31%	-5.829%	-0.5766%	0.2319%	10.91%	-0.3135%
CN(C)CCCn1c(-c2nonc2N)nc2cnccc21 [SJ000573146-1, NB100580-138A1]	-1.122%	9.262%	-2.565%	-3.074%	-0.381%	-2.29%	-1.385%	0.1912%
O=C(Nc1n[nH]c2cc(-c3ccc(F)cc3)ccc12)C1CC1 [SJ000573147-1, VB100064-137A1]	23.72%	55.62%	-1.795%	6.083%	9.118%	13.56%	-2.4%	28.55%
O=C1NC(=O)C(c2ccc(Cl)cc2)=C1Nc1ccc(Cl)c(C(=O)O)c1 [SJ000573148-1, DH98298-170B2]	-1.873%	-5.939%	-1.744%	-2.934%	0.6305%	-3.138%	-6.646%	-3.231%
O=C(Nc1ccc(Oc2ccc3[nH]c(NC(=O)c4ccccc4)nc3c2)cc1)Nc1cc(C(F)(F)F)ccc1F [SJ000573149-1, T261/94/4]	9.652%	59.46%	32.92%	22.27%	33.71%	108.7%	91.44%	43.21%
CS(=O)(=O)CCNCc1ccc(-c2ccc3ncnc(Nc4ccc(OCc5cccc(F)c5)c(C(F)(F)F)c4)c3c2)o1 [SJ000573152-1, U14859/108/1]	2.26%	-0.9918%	-1.451%	0.4672%	2.813%	2.035%	3.001%	2.673%
O=C(Nc1n[nH]c2nc(-c3ccc(O)cc3)c(Br)cc12)C1CC1 [SJ000573153-1, AN100368-079A1]	61.88%	121.4%	105%	20.28%	13.84%	85.66%	59.64%	31.9%
c1ccc(Oc2ccc(Nc3ncc(-c4ccccc4)o3)cc2)cc1 [SJ000573154-1, U15924/95/2]	-6.587%	-2.277%	-3.51%	-0.6223%	0.5718%	-2.365%	-2.884%	3.231%
COc1cccc(-n2ncc3c(N/N=C/c4ccc(C(=O)NCCN(C)C)cc4)ncnc32)c1 [SJ000573155-1, U16945/190/1]	128.6%	38.62%	51.58%	23.03%	12.67%	33.75%	45.9%	26.01%
CCn1c(-c2nonc2N)nc2ccccc21 [SJ000573156-1, U17602/18/1 | JT100597-005A1]	-4.898%	-4.724%	-3.86%	0.4432%	2.051%	-2.502%	-3.157%	-1.491%
Cc1cc(-c2ccco2)cc(C)c1/C=C/c1cncc(-c2nn[nH]n2)c1 [SJ000573157-1, T209/165/1]	6.913%	-3.964%	1.933%	4.709%	0.8109%	-1.72%	-0.5767%	-2.587%
COC(=O)Nc1nc2ccc(Oc3ccc(NC(=O)Nc4cccc(Cl)c4)cc3)cc2[nH]1 [SJ000573158-1, T278/6/1]	9.893%	60.27%	11.78%	46.36%	61.89%	98.07%	87.76%	93.62%
ON=C1CCc2cc(-c3nc(C4CCNCC4)[nH]c3-c3ccncc3)ccc21 [SJ000573159-1, DD48690-004A1]	-1.561%	-2.711%	1.757%	1.161%	3.813%	2.332%	-4.441%	-1.918%
